Results from ChEMBL document CHEMBL1131551, “Carbocyclic frenolicin analogues: novel anticoccidial agents” (1998).

test system: Eimeria; test: In vitro ability to disrupt infectious activity of Eimeria sporozoites expressed as potency relative to frenolicin (B=1); assay type: functional

How did the Relative potency turn out when `O=C1CC2CCC3=C(C(=O)c4cccc(O)c4C3=O)C2O1` (stereo not drawn) was run?
Its Relative potency is 0.033.

How did the Relative potency turn out when `O=C1C[C@H]2CCC3=C(C(=O)c4ccccc4C3=O)[C@H]2O1` was run?
The Relative potency was 0.167.

With `CC(=O)OC1CCCC2=C1C(=O)c1ccccc1C2=O` (stereo not drawn) as the compound, how does the Relative potency read?
The Relative potency was 0.001.
